The values that follow come from patent US5493007A, “Platelet aggregation inhibitors having high specificity for GPIIBIIIA” (Genentech, Inc., priority 1994, dated 1996).

*1 amine or outer side, *2 acyl side, *3 side chain or, on linkers, in order; H or OH if unused. Where a SMILES comes first, the peptide text is derived from it. Bridges are numbered along the chain shown (N, C = ends). [ ]: non-standard residue; d: D form. Cys(O)(CH2CO) = O=C([C@H](C[S+]([O-])CC(=O)[*:3])N[*:1])[*:2]; Aad = N[C@@H](CCCC(=O)O)C(=O)O; Pen = CC(C)(S)[C@H](N)C(=O)O; dOrn = NCCC[C@@H](N)C(=O)O

In one series the test system is New Zealand White rabbits. The series can be described thus: Rabbit peripheral blood flow (PBF) by observation of ear vessels. In kind it is in vivo. The arrangement: key to PBF: NORMAL: Normal flow is defined as ears that appear pink to red, with no visible constriction of the major blood vessels; Decreased flow applies to ears that have constricted vessels resulting in cold, pallid ears for up to 40 minutes following the start of the inhibitor infusion. Particulars: rabbit, i.v. bolus 0.5 mg/kg + 0.012 mg/kg infused over 60 minutes; measured visually. The method, then: Catheters are flushed and locked after every sample.
For the experiments summarized in Table 1, PBF was monitored by observation of the condition of the blood vessels in the rabbits' ears, prior to and during the infusion. Normal flow is defined as ears that appear pink to red, with no visible constriction of the major blood vessels. Decreased flow applies to ears that have constricted vessels resulting in cold, pallid ears for up to 40 minutes following the start of the inhibitor infusion.
Take `N=C(N)NCCC[C@H](NC(=O)[C@@H]1C[S+]([O-])CC(=O)N[C@H](Cc2ccc(O)cc2)C(=O)N[C@@H](CCCNC(=N)N)C(=O)NCC(=O)N[C@@H](CC(=O)O)C(=O)N1)C(N)=O` (single isomer, unassigned) [drawing 33]: the PBF entry was “NORMAL”.

Still in this series, the particulars now being: rabbit, i.v. bolus 1.5 mg/kg + 0.036 mg/kg infused over 60 minutes; measured visually.
For `N=C(N)NCCC[C@@H]1NC(=O)[C@@H](Cc2ccc(O)cc2)NC(=O)CSC[C@@H](C(=O)N[C@@H](CCCCN)C(=O)O)NC(=O)[C@H](CC(=O)O)NC(=O)CNC1=O` [drawing 32] ({CH2CO}-[dY]RGDCK-OH; thioether N-5), the PBF result is on record as “NORMAL”. Same read-out and setting: for `CC1(C)SCC(=O)N[C@H](Cc2ccc(O)cc2)C(=O)N[C@@H](CCCCN)C(=O)NCC(=O)N[C@@H](CC(=O)O)C(=O)N[C@@H]1C(=O)N[C@@H](CCCNC(=N)N)C(N)=O` [drawing 26] ({CH2CO}-[dY]KGD[Pen]R-NH2; thioether N-5) the value was “NORMAL”.

Turning to `N=C(N)NCCC[C@@H]1NC(=O)[C@@H](Cc2ccc(O)cc2)NC(=O)CSC[C@@H](C(=O)N[C@H](CCCN)C(N)=O)NC(=O)[C@H](CC(=O)O)NC(=O)CNC1=O` [drawing 18] ({CH2CO}-[dY]RGDC[dOrn]-NH2; thioether N-5), the PBF result was “NORMAL”. The same measure, in the same setting: for `N=C(N)NCCC[C@@H]1NC(=O)[C@@H](Cc2ccc(O)cc2)NC(=O)CCC[C@@H](C(=O)N[C@@H](CCCCN)C(N)=O)NC(=O)[C@H](CC(=O)O)NC(=O)CNC1=O` [drawing 29] ([dY]RGD[Aad]K-NH2; lactam N-5) the value was “NORMAL”.

Turning to `N=C(N)NCCC[C@@H]1NC(=O)[C@@H](Cc2ccc(O)cc2)NC(=O)C[S+]([O-])C[C@@H](C(=O)N[C@@H](CCCN)C(N)=O)NC(=O)[C@H](CC(=O)O)NC(=O)CNC1=O` (stereo partly drawn), the PBF entry is listed as “NORMAL”. Still for that read-out and setting: in the case of `N=C(N)NCCC[C@H](NC(=O)[C@@H]1CSCC(=O)N[C@H](Cc2ccc(O)cc2)C(=O)N[C@@H](CCCNC(=N)N)C(=O)NCC(=O)N[C@@H](CC(=O)O)C(=O)N1)C(N)=O` [drawing 15] ({CH2CO}-[dY]RGDCR-NH2; thioether N-5) it was “NORMAL”; in that of `N=C(N)NCCC[C@@H]1NC(=O)[C@@H](Cc2ccc(O)cc2)NC(=O)[C@@H](CCCNC(=N)N)SC[C@@H](C(=O)O)NC(=O)[C@H](CC(=O)O)NC(=O)CNC1=O`, “NORMAL”. On the same count and under the same terms, for `NCCCC[C@@H]1NC(=O)[C@@H](Cc2ccc(O)cc2)NC(=O)C(c2ccccc2)SC[C@@H](C(=O)O)NC(=O)[C@H](CC(=O)O)NC(=O)CNC1=O` (single isomer, unassigned) [drawing 13] the value was “NORMAL”; for `N=C(N)NCCC[C@@H]1NC(=O)[C@@H](Cc2ccc(O)cc2)NC(=O)C(CCCCN)SC[C@@H](C(=O)O)NC(=O)[C@H](CC(=O)O)NC(=O)CNC1=O` (single isomer, unassigned) [drawing 22], “NORMAL”; for `CC1(C)SCC(=O)N[C@H](Cc2ccc(O)cc2)C(=O)N[C@@H](CCCCN)C(=O)NCC(=O)N[C@@H](CC(=O)O)C(=O)N[C@@H]1C(=O)O` [drawing 9] ({CH2CO}-[dY]KGD[Pen]-OH; thioether N-5), “NORMAL”. In the case of `N=C(N)NCCC[C@@H]1NC(=O)[C@@H](Cc2ccc(O)cc2)NC(=O)C(CCCCN)SC[C@@H](C(=O)O)NC(=O)[C@H](CC(=O)O)NC(=O)CNC1=O` (single isomer, unassigned) [drawing 23], the PBF result was “NORMAL”.

On to `N=C(N)NCCC[C@@H]1NC(=O)[C@@H](Cc2ccc(O)cc2)NC(=O)[C@H](CCCNC(=N)N)SC[C@@H](C(=O)O)NC(=O)[C@H](CC(=O)O)NC(=O)CNC1=O`, for which the PBF result is on record as “NORMAL”. Still for that read-out and setting: for `N=C(N)NCCC[C@H](NC(=O)[C@@H]1CCCC(=O)N[C@H](Cc2ccc(O)cc2)C(=O)N[C@@H](CCCNC(=N)N)C(=O)NCC(=O)N[C@@H](CC(=O)O)C(=O)N1)C(N)=O` [drawing 28] ([dY]RGD[Aad]R-NH2; lactam N-5) the value was “NORMAL”; for `N=C(N)NCCC[C@H](NC(=O)[C@@H]1C[S+]([O-])CC(=O)N[C@H](Cc2ccc(O)cc2)C(=O)N[C@@H](CCCNC(=N)N)C(=O)NCC(=O)N[C@@H](CC(=O)O)C(=O)N1)C(N)=O` (single isomer, unassigned) [drawing 34], “NORMAL”.

Still in this series, the particulars now being: rabbit, i.v. bolus .375 mg/kg + 0.009 mg/kg infused over 60 minutes; measured visually.
Turning to `N=C(N)NCCC[C@@H]1NC(=O)[C@@H](Cc2ccc(O)cc2)NC(=O)C[S+]([O-])C[C@@H](C(=O)O)NC(=O)[C@H](CC(=O)O)NC(=O)CNC1=O` (stereo partly drawn) ([dY]RGD[Cys(O)(CH2CO)]-OH; lactam N-5), the PBF result is listed as “NORMAL”.

For the next series, the target named is human platelet rich plasma (PRP) (Homo sapiens, UniProt P05106+P08514). The series can be described thus: In Vitro Human Platelet Aggregation Assay. In kind it is cell-based. Particulars: human PRP; read-out: Human Platelet Aggregation IC50. As for the experimental part: Platelet aggregation assays are performed in human platelet rich plasma (PRP). Fifty milliliters of whole human blood (9 parts) is drawn on 3.6% sodium citrate (1 part) from a donor who has not taken aspirin or related medications for at least two weeks. The blood is centrifuged at 160×g for 10 minutes at 22° C. and allowed to stand for 5 minutes after which the PRP is decanted. Platelet poor plasma (PPP) is isolated from the remaining blood after centrifugation at 2000×g for 25 minutes. The platelet count of the PRP is diluted to about 300,000 platelets per microliter with PPP.
human platelet rich plasma (PRP), sequence (P08514 32-1039): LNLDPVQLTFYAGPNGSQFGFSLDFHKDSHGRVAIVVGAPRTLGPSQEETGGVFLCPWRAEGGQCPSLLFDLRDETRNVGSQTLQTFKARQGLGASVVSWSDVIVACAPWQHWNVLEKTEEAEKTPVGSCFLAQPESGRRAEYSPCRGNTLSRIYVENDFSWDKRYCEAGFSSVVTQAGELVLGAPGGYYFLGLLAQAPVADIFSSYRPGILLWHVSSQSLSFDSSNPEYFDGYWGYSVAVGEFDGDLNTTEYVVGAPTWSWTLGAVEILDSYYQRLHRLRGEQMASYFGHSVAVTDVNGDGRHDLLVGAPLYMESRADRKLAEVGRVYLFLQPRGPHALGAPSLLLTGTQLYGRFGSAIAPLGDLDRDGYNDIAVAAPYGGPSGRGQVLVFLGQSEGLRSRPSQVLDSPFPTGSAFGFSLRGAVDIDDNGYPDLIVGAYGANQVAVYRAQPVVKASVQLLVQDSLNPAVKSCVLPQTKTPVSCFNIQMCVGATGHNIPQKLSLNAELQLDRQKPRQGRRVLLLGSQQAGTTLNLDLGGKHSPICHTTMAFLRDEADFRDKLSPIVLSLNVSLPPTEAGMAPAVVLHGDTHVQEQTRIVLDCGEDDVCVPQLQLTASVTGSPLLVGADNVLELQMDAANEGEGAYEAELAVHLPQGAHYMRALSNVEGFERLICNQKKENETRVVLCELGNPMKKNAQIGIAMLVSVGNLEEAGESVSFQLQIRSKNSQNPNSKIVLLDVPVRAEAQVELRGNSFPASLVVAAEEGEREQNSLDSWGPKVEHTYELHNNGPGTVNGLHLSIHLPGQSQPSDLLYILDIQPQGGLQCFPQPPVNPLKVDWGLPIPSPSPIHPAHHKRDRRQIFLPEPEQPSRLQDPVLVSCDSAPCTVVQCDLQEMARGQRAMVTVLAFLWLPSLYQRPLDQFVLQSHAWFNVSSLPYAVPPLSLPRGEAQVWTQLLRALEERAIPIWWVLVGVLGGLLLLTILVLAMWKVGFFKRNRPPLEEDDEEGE
human platelet rich plasma (PRP), sequence (P05106 27-788): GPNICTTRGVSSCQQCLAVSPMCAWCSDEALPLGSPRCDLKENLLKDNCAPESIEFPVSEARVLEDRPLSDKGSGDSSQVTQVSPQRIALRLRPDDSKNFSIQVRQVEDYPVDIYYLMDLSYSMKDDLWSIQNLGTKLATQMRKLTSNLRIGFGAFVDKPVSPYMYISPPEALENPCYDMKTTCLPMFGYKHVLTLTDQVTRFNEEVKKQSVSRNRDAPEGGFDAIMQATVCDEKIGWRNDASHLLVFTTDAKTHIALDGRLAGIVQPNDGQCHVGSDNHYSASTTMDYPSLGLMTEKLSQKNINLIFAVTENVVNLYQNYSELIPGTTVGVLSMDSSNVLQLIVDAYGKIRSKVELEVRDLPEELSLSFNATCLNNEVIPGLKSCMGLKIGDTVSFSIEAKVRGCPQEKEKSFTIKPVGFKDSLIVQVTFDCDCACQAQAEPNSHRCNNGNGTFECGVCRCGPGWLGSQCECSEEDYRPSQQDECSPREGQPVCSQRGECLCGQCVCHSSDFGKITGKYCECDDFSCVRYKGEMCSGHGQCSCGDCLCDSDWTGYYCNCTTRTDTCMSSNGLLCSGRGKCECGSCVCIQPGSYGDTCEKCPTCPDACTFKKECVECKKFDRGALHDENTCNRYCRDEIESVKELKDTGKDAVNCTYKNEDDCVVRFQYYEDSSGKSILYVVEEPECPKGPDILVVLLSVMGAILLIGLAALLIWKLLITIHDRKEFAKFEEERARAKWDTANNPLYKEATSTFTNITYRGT
A 225 μl aliquot of PRP plus 25 μl of either a dilution of the test inhibitor sample or a control (PBS) is incubated for 5 minutes in a Chrono-log Whole Blood Aggregometer at 25° C. An aggregating agent (collagen, 1 μg/ml; U46619, 100 ng/ml; or ADP, 17 μM) is added and the transmission is recorded.
Consider `N=C(N)NCCC[C@@H]1NC(=O)[C@@H](Cc2ccc(O)cc2)NC(=O)CSC[C@@H](C(=O)N[C@@H](CCCCN)C(=O)O)NC(=O)[C@H](CC(=O)O)NC(=O)CNC1=O` [7/25, cyclo-S-acetyl-dTyr--Arg--Gly--Asp--Cys--Lys--OH] ({CH2CO}-[dY]RGDCK-OH; thioether N-5), for which the IC50 – broadly, the point on the concentration scale where inhibition reaches its midpoint – amounted to 370 nM. The same measure, in the same setting: for “cyclo-S-acetyl-dTyr--Arg--Gly--Asp--Cys--Tyr--Arg--NH2 [7/43]” the value was 350 nM.
